Columns and labels:
[1] = test system: Glomerella lagenarium (Colletotrichum lagenarium); experiment: Glomerella lagenarium (Colletotrichum lagenarium) / liquid culture (anthracnose); assay type: cell-based; conditions: Colletotrichum orbiculare, PDB liquid culture, 24° C., growth inhibition measured photometrically 3-4 days after application, vs untreated control
Description: (§1) Example B2: Glomerella lagenarium (Colletotrichum lagenarium)/Liquid Culture (Anthracnose) Conidia of the fungus from cryogenic storage are directly mixed into nutrient broth (PDB potato dextrose broth). After placing a (DMSO) solution of test compound into a microtiter plate (96-well format), the nutrient broth containing the fungal spores is added. The test plates are incubated at 24° C. and the inhibition of growth is measured photometrically 3-4 days after application. […] […]-49, and P-50.

[2] = test system: Blumeria graminis f. sp. tritici (Erysiphe graminis f. sp. tritici); experiment: Blumeria graminis f. sp. tritici / wheat / leaf disc preventative (powdery mildew on wheat); assay type: in vivo; conditions: foliar, wheat leaf segments cv. Kanzler, inoculated 1 day after application, assessed 6-8 days after application, vs untreated control
Description: Example B3: Blumeria graminis f. sp. tritici (Erysiphe graminis f. so. tritici)/Wheat/Leaf Disc Preventative (Powdery Mildew on Wheat) Wheat leaf segments cv. Kanzler are placed on agar in a multiwell plate (24-well format) and sprayed with the formulated test compound diluted in water. The leaf disks are inoculated by shaking powdery mildew infected plants above the test plates 1 day after application. The inoculated leaf disks are incubated at 20°° C. and 60% rh under a light regime of 24 h darkness followed by 12 h light/12 h darkness in a climate chamber and the activity of a compound is assessed as percent disease control compared to untreated when an appropriate level of disease damage appears on untreated check leaf segments (6-8 days after application). […]-45, and P-50.

[3] = test system: Monographella nivalis (Microdochium nivale); experiment: Monographella nivalis (Microdochium nivale) / liquid culture (foot rot cereals); assay type: cell-based; conditions: PDB liquid culture, 24° C., growth inhibition determined photometrically 4-5 days after application, vs untreated control
Description: as §1, with “B5: Monographella nivalis (Microdochium nivale)/Liquid” for “B2: Glomerella lagenarium (Colletotrichum lagenarium)/Liquid”, “(Foot Rot Cereals)” for “(Anthracnose)”, “determined” for “measured”, “4-5” for “3-4”

[4] = test system: Mycosphaerella arachidis (Cercospora arachidicola); experiment: Mycosphaerella arachidis (Cercospora arachidicola) / liquid culture (early leaf spot); assay type: cell-based; conditions: PDB liquid culture, 24° C., growth inhibition determined photometrically 4-5 days after application, vs untreated control
Description: Example B6: Mycosphaerella arachidis (Cercospora arachidicola)/Liquid Culture (Early Leaf Spot) Conidia of the fungus from cryogenic storage are directly mixed into nutrient broth (PDB potato dextrose broth). After placing a (DMSO) solution of test compound into a microtiter plate (96-well format), the nutrient broth containing the fungal spores is added. The test plates are incubated at 24° C. and the inhibition of growth is determined photometrically 4-5 days after application. […] […]-44, and P-48.

[5] = test system: Puccinia recondita f. sp. tritici; experiment: Puccinia recondita f. sp. tritici / wheat / leaf disc preventative (brown rust); assay type: in vivo; conditions: foliar, wheat leaf segments cv. Kanzler, inoculated 1 day after application, assessed 7-9 days after application, vs untreated control
Description: Example B8: Puccinia recondita f. sp. tritici/Wheat/Leaf Disc Preventative (Brown rust) Wheat leaf segments cv. Kanzler are placed on agar in multiwell plates (24-well format) and sprayed with the formulated test compound diluted in water. The leaf disks are inoculated with a spore suspension of the fungus 1 day after application. The inoculated leaf segments are incubated at 19° C. and 75% rh under a light regime of 12 h light/12 h darkness in a climate cabinet and the activity of a compound is assessed as percent disease control compared to untreated when an appropriate level of disease damage appears in untreated check leaf segments (7-9 days after application).

[6] = test system: Magnaporthe grisea (Pyricularia oryzae); experiment: whole plant or invertebrate; assay type: in vivo; conditions: foliar, read-out: control of Magnaporthe grisea
[7] = test system: Mycosphaerella graminicola (Septoria tritici); experiment: Mycosphaerella graminicola (Septoria tritici) / liquid culture (Septoria blotch); assay type: cell-based; conditions: Zymoseptoria tritici, PDB liquid culture, 24° C., growth inhibition determined photometrically 4-5 days after application, vs untreated control
Description: Example B12: Mycosphaerella graminicola (Septoria tritici)/Liquid Culture (Septoria Blotch) Conidia of the fungus from cryogenic storage are directly mixed into nutrient broth (PDB potato dextrose broth). After placing a (DMSO) solution of test compound into a microtiter plate (96-well format), the nutrient broth containing the fungal spores is added. The test plates are incubated at 24° C. and the inhibition of growth is determined photometrically 4-5 days after application. […] […]-48, and P-49.

Alternaria solani = Alternaria solani / tomato / leaf disc (early blight); assay type: in vivo; conditions: foliar, tomato leaf disks cv. Baby, inoculated 2 days after application, assessed 5-7 days after application, vs untreated control
Description: Example B1: Alternaria solani/Tomato/Leaf Disc (Early Blight) Tomato leaf disks cv. Baby are placed on agar in multiwell plates (24-well format) and sprayed with the formulated test compound diluted in water. The leaf disks are inoculated with a spore suspension of the fungus 2 days after application. The inoculated leaf disks are incubated at 23° C./21° C. […] […]-43, and P-44.

[8] = test system: Botryotinia fuckeliana (Botrytis cinerea); experiment: Botryotinia fuckeliana (Botrytis cinerea) / liquid culture (gray mould); assay type: cell-based; conditions: 20 ppm; Vogels broth liquid culture, 24° C., growth inhibition determined photometrically 3-4 days after application; vs untreated control
Description: Example B13: Botryotinia fucleliana (Botrytis cinerea)/Liquid Culture (Gray Mould) Conidia of the fungus from cryogenic storage are directly mixed into nutrient broth (Vogels broth). After placing a (DMSO) solution of test compound into a microtiler plate (96-well format), the nutrient broth containing the fungal spores is added. The test plates are incubated at 24° C. and the inhibition of growth is determined photometrically 3-4 days after application. […] P-25.

| SMILES | inhibition of growth at 20 ppm [1] | pest or weed control at 200 ppm [2] | inhibition of growth at 20 ppm [3] | inhibition of growth at 20 ppm [4] | pest or weed control at 200 ppm [5] | pest or weed control at 200 ppm [6] | inhibition of growth at 20 ppm [7] | pest or weed control at 200 ppm (Alternaria solani) | control of Botryotinia fuckeliana [8] |
| --- | --- | --- | --- | --- | --- | --- | --- | --- | --- |
| COc1ncc(Nc2cc(F)cc(F)c2)nc1C(=O)NC(C)CCCC(C)C (stereo not shown) [Compound P-40, 6-(3,5-difluoroanilino)-N-(1,5-dimethylhexyl)-3-methoxy-pyrazine-2-carboxamide] | ≥ 80% | ≥ 80% | ≥ 80% | ≥ 80% | ≥ 80% | ≥ 80% | ≥ 80% | – | – |
| COc1ncc(Nc2cc(F)cc(F)c2)nc1C(=O)NC1(C)CC1 [Compound P-37, 6-(3,5-difluoroanilino)-3-methoxy-N-(1-methylcyclopropyl) pyrazine-2-carboxamide] | ≥ 80% | ≥ 80% | ≥ 80% | – | ≥ 80% | ≥ 80% | ≥ 80% | ≥ 80% | – |
| COc1ncc(Nc2cc(F)cc(F)c2)nc1C(=O)NCC(C)(C)C [Compound P-39, 6-(3,5-difluoroanilino)-N-(2,2-dimethylpropyl)-3-methoxy-pyrazine-2-carboxamide] | ≥ 80% | ≥ 80% | ≥ 80% | ≥ 80% | ≥ 80% | ≥ 80% | ≥ 80% | ≥ 80% | – |
| COc1ncc(Nc2ccccc2)nc1C(=O)NC1CCC1(C)C (stereo not shown) [Compound P-4, 6-anilino-N-(2,2-dimethylcyclobutyl)-3-methoxy-pyrazine-2-carboxamide] | ≥ 80% | ≥ 80% | ≥ 80% | ≥ 80% | ≥ 80% | – | ≥ 80% | ≥ 80% | – |
| COc1ncc(Nc2cc(F)cc(F)c2)nc1C(=O)NCC1(C(F)(F)F)CC1 [Compound P-25, 6-(3,5-difluoroanilino)-3-methoxy-N-[[1-(trifluoromethyl)cyclopropyl]methyl] pyrazine-2-carboxamide] | ≥ 80% | ≥ 80% | ≥ 80% | ≥ 80% | ≥ 80% | ≥ 80% | ≥ 80% | ≥ 80% | at least 80% |
| COc1ncc(NCC2CC2)nc1C(=O)NC1CCC1(C)C (stereo not shown) [Compound P-9, 6-(cyclopropylmethylamino)-N-(2,2-dimethylcyclobutyl)-3-methoxy-pyrazine-2-carboxamide] | ≥ 80% | ≥ 80% | ≥ 80% | ≥ 80% | ≥ 80% | – | ≥ 80% | ≥ 80% | – |
| COc1ncc(Nc2cc(F)cc(F)c2)nc1C(=O)NC(C)(C)C [Compound P-38, N-tert-butyl-6-(3,5-difluoroanilino)-3-methoxy-pyrazine-2-carboxamide] | ≥ 80% | ≥ 80% | ≥ 80% | ≥ 80% | ≥ 80% | ≥ 80% | ≥ 80% | ≥ 80% | – |
| COc1ncc(Nc2cc(F)cc(F)c2)nc1C(=O)NC1COC2(CC2)C1 (stereo not shown) [Compound P-20, 6-(3,5-difluoroanilino)-3-methoxy-N-(4-oxaspiro[2.4]heptan-6-yl)pyrazine-2-carboxamide] | ≥ 80% | ≥ 80% | ≥ 80% | ≥ 80% | ≥ 80% | ≥ 80% | ≥ 80% | ≥ 80% | – |
| COc1ncc(Nc2cc(F)cc(F)c2)nc1C(=O)NCC1(C)CCOC2(CCC2)C1 (stereo not shown) [Compound P-22, 6-(3,5-difluoroanilino)-3-methoxy-N-[(8-methyl-5-oxaspiro[3.5]nonan-8-yl)methyl]pyrazine-2-carboxamide] | ≥ 80% | ≥ 80% | ≥ 80% | ≥ 80% | ≥ 80% | ≥ 80% | ≥ 80% | ≥ 80% | – |
| COc1ncc(Nc2cc(F)cc(F)c2)nc1C(=O)NCc1cccc2c1OC(F)(F)O2 [Compound P-29, 6-(3,5-difluoroanilino)-N-[(2,2-difluoro-1.3-benzodioxol-4-yl)methyl]-3-methoxy-pyrazine-2-carboxamide] | ≥ 80% | – | ≥ 80% | ≥ 80% | ≥ 80% | ≥ 80% | ≥ 80% | – | – |
| COc1ncc(Nc2cccc(F)c2)nc1C(=O)NC1CCC1(C)C (stereo not shown) [Compound P-5, N-(2.2-dimethylcyclobutyl)-6-(3-fluoroanilino)-3-methoxy-pyrazine-2-carboxamide] | ≥ 80% | ≥ 80% | ≥ 80% | ≥ 80% | ≥ 80% | ≥ 80% | ≥ 80% | ≥ 80% | – |
| COc1ncc(Nc2cc(F)cc(F)c2)nc1C(=O)NC1CCC1(C)C (stereo not shown) [Compound P-43, 6-(3,5-difluoroanilino)-N-(2,2-dimethylcyclobutyl)-3-methoxy-pyrazine-2-carboxamide] | ≥ 80% | ≥ 80% | ≥ 80% | ≥ 80% | ≥ 80% | ≥ 80% | ≥ 80% | ≥ 80% | – |
| COc1ncc(Nc2cc(F)nc(F)c2)nc1C(=O)NCC1(C)CCOC2(CCC2)C1 (stereo not shown) [Compound P-34] | ≥ 80% | – | – | – | ≥ 80% | ≥ 80% | – | – | – |
